Experimental data published in US9169209B2, “Compounds and compositions for the inhibition of NAMPT” (FORMA TM, LLC, priority 2011, dated 2015).

Key:
[1] = biological target: NAMPT (Homo sapiens (Human), UniProt P43490); assay: Biochemical Inhibition Assay (NAMPT enzymatic reaction, NMN quantified by mass spectrometry); conditions: recombinant His-tagged NAMPT, 33 nM; 1 μM NAM; read-out: Biochem IC50
Method: Recombinant His-tagged NAMPT was produced in E. coli cells, purified over a Ni column, and further purified over a size-exclusion column by XTAL Biostructures.
The NAMPT enzymatic reactions were carried out in Buffer A (50 mM Hepes pH 7.5, 50 mM NaCl, 5 mM MgCl2, and 1 mM THP) in 96-well V-bottom plates. The compound titrations were performed in a separate dilution plate by serially diluting the compounds in DMSO to make a 100× stock. […] The compound and enzyme mix was incubated for 15 minutes at room temperature, then 10 μL of 10× substrate and co-factors in Buffer A were added to the test well to make a final concentration of 1 μM NAM, 100 μM 5-Phospho-D-ribose 1-diphosphate (PRPP), and 2.5 mM Adenosine 5′-triphosphate (ATP). The reaction was allowed to proceed for 30 minutes at room temperature, then was quenched with the addition of 11 μL of a solution of formic acid and L-Cystathionine to make a final concentration of 1% formic acid and 10 μM L-Cystathionine. Background and signal strength was determined by addition (or non-addition) of a serial dilution of NMN to a pre-quenched enzyme and cofactor mix.
A mass spectrometry-based assay was used to measure the NAMPT reaction product (NMN) and the internal control (L-Cystathionine). NMN and L-Cystathionine were detected using the services of Biocius Lifesciences with the RapidFire system. In short, the NMN and L-Cystathionine are bound to a graphitic carbon cartridge in 0.1% formic acid, eluted in 30% acetonitrile buffer, and injected into a Sciex 4000 mass spectrometer. The components of the sample were ionized with electrospray ionization and the positive ions were detected. […] The fragments are quantified and the analyzed by the following method.
First the NMN signal is normalized to the L-Cystathionine signal by dividing the NMN signal by the L-Cystathionine signal for each well. The signal from the background wells are averaged and subtracted from the test plates.
Wherein x denotes the average signal of the compound treated wells and y denotes the average signal of the DMSO treated wells.
IC50s are Determined Using Excel and this Formula.
Wherein X denotes the compound concentration 1, Y denotes the compound concentration 2, XX denotes the % inhibition at compound concentration 1 (X), and YY denotes the % inhibition at compound concentration 2 (Y).

[2] = system: A2780 cells; assay: In-Vitro Cell Proliferation Assay (SRB, 72 hours); assay type: cell-based; conditions: Homo sapiens, A2780, 72 h, A2780 cells, 72 hours, sulforhodamine B; read-out: A2780 IC50
Method: After overnight incubation at 37° C. and 5% CO2, the compound titrations were performed in a separate dilution plate by serially diluting the compounds in DMSO to make a 1000× stock. The compounds were then further diluted to 10× final concentration in culture media, whereupon 20 μL of each dilution was added to the plated cells with controls (e.g. DMSO and blank) to make a final volume of 200 μL. The final DMSO concentration in each well was 0.1%. The plates were then incubated for 72 hours at 37° C. in a 5% CO2 incubator. The number of viable cells was then assessed using sulforhodamine B (SRB) assay. Cells were fixed at 4° C. for 1 hour with the addition of 50 μL 30% trichloroacetic acid (TCA) to make a final concentration of 6% TCA. The plates were washed four times with H2O and allowed to dry for at least 1 hour, whereupon 100 μL of a 4% SRB in 1% acetic acid solution was added to each well and incubated at room temperature for at least 30 minutes. The plates were then washed three times with 1% acetic acid, dried, and treated with 100 μL of 10 mM Tris-Base solution. The plates were then read in a microplate reader at an absorbance of 570 nm. Background was generated on a separate plate with media only.
First, the signals from the background plate are averaged and then the background was subtracted from the test plates.
wherein x denotes the average signal of the compound-treated cells and y denotes the average signal of the DMSO-treated cells.
wherein X denotes the compound concentration 1, Y denotes the compound concentration 2, XX denotes the % inhibition at compound concentration 1 (X), and YY denotes the % inhibition at compound concentration 2 (Y).

Chain of NAMPT (P43490 whole entry): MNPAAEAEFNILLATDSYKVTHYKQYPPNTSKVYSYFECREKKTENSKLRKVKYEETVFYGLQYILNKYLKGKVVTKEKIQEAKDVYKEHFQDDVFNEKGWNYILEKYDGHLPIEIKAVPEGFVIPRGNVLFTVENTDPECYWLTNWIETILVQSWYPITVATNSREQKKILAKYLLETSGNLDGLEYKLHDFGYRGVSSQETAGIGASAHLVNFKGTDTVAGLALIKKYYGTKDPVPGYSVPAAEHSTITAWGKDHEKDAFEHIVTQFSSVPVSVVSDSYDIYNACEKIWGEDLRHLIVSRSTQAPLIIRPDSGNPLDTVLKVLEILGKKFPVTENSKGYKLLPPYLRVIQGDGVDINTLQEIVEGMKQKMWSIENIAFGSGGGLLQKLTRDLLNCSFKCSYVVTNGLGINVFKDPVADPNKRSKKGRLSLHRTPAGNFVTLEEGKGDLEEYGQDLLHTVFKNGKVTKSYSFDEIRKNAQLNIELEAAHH

SMILES	IC50 [1]	IC50 [2]
COCc1cccc(S(=O)(=O)c2ccc(NC(=O)/C=C/c3cccnc3)cc2)c1 [(2E)-N-(4-{[3-(methoxymethyl)benzene]sulfonyl}phenyl)-3-(pyridin-3-yl)prop-2-enamide]	7.7 nM	78 nM
O=C(/C=C/c1cccnc1)Nc1ccc(S(=O)(=O)c2cccc(N3CCOCC3)c2)cc1 [(2E)-N-(4-{[3-(morpholin-4-yl)benzene]sulfonyl}phenyl)-3-(pyridin-3-yl)prop-2-enamide]	9.2 nM	30.3 nM
CC(C)Oc1cccc(S(=O)(=O)c2ccc(NC(=O)/C=C/c3cccnc3)cc2)c1 [(2E)-N-(4-{[3-(propan-2-yloxy)benzene]sulfonyl}phenyl)-3-(pyridin-3-yl)prop-2-enamide]	1.1 nM	48.9 nM
O=C(/C=C/c1cccnc1)Nc1ccc(S(=O)(=O)c2ccc(C(F)(F)F)c(Cl)c2)cc1 [(2E)-N-(4-{[3-chloro-4-(trifluoromethyl)benzene]sulfonyl}phenyl)-3-(pyridin-3-yl)prop-2-enamide]	43.4 nM	100 to 1000 nM
O=C(/C=C/c1cccnc1)Nc1ccc(S(=O)(=O)c2cc(Cl)cc(C(F)(F)F)c2)cc1 [(2E)-N-(4-{[3-chloro-5-(trifluoromethyl)benzene]sulfonyl}phenyl)-3-(pyridin-3-yl)prop-2-enamide]	8.1 nM	58.3 nM
CC(C)COc1cc(F)cc(S(=O)(=O)c2ccc(NC(=O)/C=C/c3cccnc3)cc2)c1 [(2E)-N-(4-{[3-fluoro-5-(2-methylpropoxy)benzene]sulfonyl}phenyl)-3-(pyridin-3-yl)prop-2-enamide]	35.4 nM	61.3 nM
O=C(/C=C/c1cccnc1)Nc1ccc(S(=O)(=O)c2ccc(-n3cccn3)cc2)cc1 [(2E)-N-(4-{[4-(1H-pyrazol-1-yl)benzene]sulfonyl}phenyl)-3-(pyridin-3-yl)prop-2-enamide]	17.4 nM	71.7 nM
CCOCc1ccc(S(=O)(=O)c2ccc(NC(=O)/C=C/c3cccnc3)cc2)cc1 [(2E)-N-(4-{[4-(ethoxymethyl)benzene]sulfonyl}phenyl)-3-(pyridin-3-yl)prop-2-enamide]	7.8 nM	100 to 1000 nM
O=C(/C=C/c1cccnc1)Nc1ccc(S(=O)(=O)c2ccc(N3CCOCC3)cc2)cc1 [(2E)-N-(4-{[4-(morpholin-4-yl)benzene]sulfonyl}phenyl)-3-(pyridin-3-yl)prop-2-enamide]	24.8 nM	55.3 nM
CC(C)Oc1ccc(S(=O)(=O)c2ccc(NC(=O)/C=C/c3cccnc3)cc2)cc1 [(2E)-N-(4-{[4-(propan-2-yloxy)benzene]sulfonyl}phenyl)-3-(pyridin-3-yl)prop-2-enamide]	5.4 nM	91.5 nM
O=C(/C=C/c1cccnc1)Nc1ccc(S(=O)(=O)c2ccc(Cl)c(C(F)(F)F)c2)cc1 [(2E)-N-(4-{[4-chloro-3-(trifluoromethyl)benzene]sulfonyl}phenyl)-3-(pyridin-3-yl)prop-2-enamide]	18.4 nM	122 nM
O=C(/C=C/c1cccnc1)Nc1ccc(S(=O)(=O)c2cccc3ccsc23)cc1 [(2E)-N-[4-(1-benzothiophene-7-sulfonyl)phenyl]-3-(pyridin-3-yl)prop-2-enamide]	16.1 nM	106 nM
Cn1ncc2cc(S(=O)(=O)c3ccc(NC(=O)/C=C/c4cccnc4)cc3)ccc21 [(2E)-N-[4-(1-methyl-1H-indazole-5-sulfonyl)phenyl]-3-(pyridin-3-yl)prop-2-enamide]	1.9 nM	97.6 nM
Cn1ncc2cccc(S(=O)(=O)c3ccc(NC(=O)/C=C/c4cccnc4)cc3)c21 [(2E)-N-[4-(1-methyl-1H-indazole-7-sulfonyl)phenyl]-3-(pyridin-3-yl)prop-2-enamide]	8.9 nM	100 to 1000 nM
Cn1c(S(=O)(=O)c2ccc(NC(=O)/C=C/c3cccnc3)cc2)cc2ccccc21 [(2E)-N-[4-(1-methyl-1H-indole-2-sulfonyl)phenyl]-3-(pyridin-3-yl)prop-2-enamide]	21.8 nM	100 to 1000 nM
Cn1cc(S(=O)(=O)c2ccc(NC(=O)/C=C/c3cccnc3)cc2)cn1 [(2E)-N-[4-(1-methyl-1H-pyrazole-4-sulfonyl)phenyl]-3-(pyridin-3-yl)prop-2-enamide]	7.7 nM	100 to 1000 nM
CCCn1cc(S(=O)(=O)c2ccc(NC(=O)/C=C/c3cccnc3)cc2)cn1 [(2E)-N-[4-(1-propyl-1H-pyrazole-4-sulfonyl)phenyl]-3-(pyridin-3-yl)prop-2-enamide]	2.6 nM	20.8 nM
O=C(/C=C/c1cccnc1)Nc1ccc(S(=O)(=O)c2cccc3[nH]ccc23)cc1 [(2E)-N-[4-(1H-indole-4-sulfonyl)phenyl]-3-(pyridin-3-yl)prop-2-enamide]	2.3 nM	40.1 nM
O=C(/C=C/c1cccnc1)Nc1ccc(S(=O)(=O)c2cccc3cc[nH]c23)cc1 [(2E)-N-[4-(1H-indole-7-sulfonyl)phenyl]-3-(pyridin-3-yl)prop-2-enamide]	8.4 nM	13.3 nM
O=C(/C=C/c1cccnc1)Nc1ccc(S(=O)(=O)c2cccc3c2OCC3)cc1 [(2E)-N-[4-(2,3-dihydro-1-benzofuran-7-sulfonyl)phenyl]-3-(pyridin-3-yl)prop-2-enamide]	4.9 nM	36.1 nM
Cc1ncccc1S(=O)(=O)c1ccc(NC(=O)/C=C/c2cccnc2)cc1 [(2E)-N-[4-(2-methylpyridine-3-sulfonyl)phenyl]-3-(pyridin-3-yl)prop-2-enamide]	9 nM	100 to 1000 nM
O=C(/C=C/c1cccnc1)Nc1ccc(S(=O)(=O)c2cccc3c2OCO3)cc1 [(2E)-N-[4-(2H-1,3-benzodioxole-4-sulfonyl)phenyl]-3-(pyridin-3-yl)prop-2-enamide]	16.1 nM	75.1 nM
O=C(/C=C/c1cccnc1)Nc1ccc(S(=O)(=O)c2ccc3c(c2)OCO3)cc1 [(2E)-N-[4-(2H-1,3-benzodioxole-5-sulfonyl)phenyl]-3-(pyridin-3-yl)prop-2-enamide]	9.9 nM	100 to 1000 nM
Cc1ccncc1S(=O)(=O)c1ccc(NC(=O)/C=C/c2cccnc2)cc1 [(2E)-N-[4-(4-methylpyridine-3-sulfonyl)phenyl]-3-(pyridin-3-yl)prop-2-enamide]	20.4 nM	100 to 1000 nM
COc1cncc(S(=O)(=O)c2ccc(NC(=O)/C=C/c3cccnc3)cc2)c1 [(2E)-N-[4-(5-methoxypyridine-3-sulfonyl)phenyl]-3-(pyridin-3-yl)prop-2-enamide]	15.6 nM	86.3 nM
Cc1cncc(S(=O)(=O)c2ccc(NC(=O)/C=C/c3cccnc3)cc2)c1 [(2E)-N-[4-(5-methylpyridine-3-sulfonyl)phenyl]-3-(pyridin-3-yl)prop-2-enamide]	18.1 nM	74.4 nM
Cc1ccc(S(=O)(=O)c2ccc(NC(=O)/C=C/c3cccnc3)cc2)s1 [(2E)-N-[4-(5-methylthiophene-2-sulfonyl)phenyl]-3-(pyridin-3-yl)prop-2-enamide]	16.6 nM	100 to 1000 nM
O=C(/C=C/c1cccnc1)Nc1ccc(S(=O)(=O)c2ccccc2)cc1 [(2E)-N-[4-(benzenesulfonyl)phenyl]-3-(pyridin-3-yl)prop-2-enamide]	4 nM	81 nM
O=C(/C=C/c1cccnc1)Nc1ccc(S(=O)(=O)c2cncc3ccccc23)cc1 [(2E)-N-[4-(isoquinoline-4-sulfonyl)phenyl]-3-(pyridin-3-yl)prop-2-enamide]	2.45 nM	21.7 nM
